“And” between values parts separate entries of the source, which are not always exact repeats. Equal entries are not always repeated. Inconclusive results and toxic doses are left out.
Test system: L1210 leukemia ip in BDF1 mice, survival T/C
Test: NCI In Vivo Anticancer Drug Screen. Data for tumor model L1210 Leukemia (intraperitoneal) in B6D2F1 (BDF1) mice
Conditions: endpoint: mean survival time, higher = longer survival
How it was run: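 Antitumor effect is assessed in tumor-bearing animals. Survival in the compound arm is compared with a vehicle-dosed control arm and expressed as their quotient.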

[1] = dose: 400.0 mg/kg/injection, schedule: Q01DX001 (ip), vehicle: carboxymethylcellulose (CMC)
[2] = dose: 100.0 mg/kg/injection, schedule: Q01DX009 (ip), vehicle: Klucel (hydroxypropylcellulose) (HPC)
[3] = dose: 200.0 mg/kg/injection, schedule: Q01DX009 (ip), vehicle: Klucel (hydroxypropylcellulose) (HPC)
[4] = dose: 100.0 mg/kg/injection, schedule: Q04DX003 (ip), vehicle: Klucel (hydroxypropylcellulose) (HPC)
[5] = dose: 200.0 mg/kg/injection, schedule: Q04DX003 (ip), vehicle: Klucel (hydroxypropylcellulose) (HPC)
[6] = dose: 400.0 mg/kg/injection, schedule: Q04DX003 (ip), vehicle: Klucel (hydroxypropylcellulose) (HPC)
[7] = dose: 50.0 mg/kg/injection, schedule: Q01DX001 (ip), vehicle: carboxymethylcellulose (CMC)
[8] = dose: 100.0 mg/kg/injection, schedule: Q01DX001 (ip), vehicle: carboxymethylcellulose (CMC)
[9] = dose: 200.0 mg/kg/injection, schedule: Q01DX001 (ip), vehicle: carboxymethylcellulose (CMC)
[10] = dose: 100.0 mg/kg/injection, schedule: Q01DX001 (ip), vehicle: saline
[11] = dose: 200.0 mg/kg/injection, schedule: Q01DX001 (ip), vehicle: saline
[12] = dose: 100.0 mg/kg/injection, schedule: Q04DX002 (ip), vehicle: Klucel (hydroxypropylcellulose) (HPC)
[13] = dose: 200.0 mg/kg/injection, schedule: Q04DX002 (ip), vehicle: Klucel (hydroxypropylcellulose) (HPC)
[14] = dose: 400.0 mg/kg/injection, schedule: Q04DX002 (ip), vehicle: Klucel (hydroxypropylcellulose) (HPC)

SMILES: COc1cc(-c2ccc(NC(=O)Nc3ccc(C4=NCCN4)cc3)c(OC)c2)ccc1NC(=O)Nc1ccc(C2=NCCN2)cc1
- T/C (dose: 15.0 mg/kg/injection, schedule: Q01DX Z (ip), vehicle: carboxymethylcellulose (CMC)): 104 % of control
- T/C (dose: 31.0 mg/kg/injection, schedule: Q01DX Z (ip), vehicle: carboxymethylcellulose (CMC)): 98 % of control
- T/C (dose: 62.5 mg/kg/injection, schedule: Q01DX Z (ip), vehicle: carboxymethylcellulose (CMC)): 117 % of control
- T/C (dose: 125.0 mg/kg/injection, schedule: Q01DX Z (ip), vehicle: carboxymethylcellulose (CMC)): 103 % of control
- T/C (dose: 250.0 mg/kg/injection, schedule: Q01DX Z (ip), vehicle: water): 117 % of control
- T/C (dose: 500.0 mg/kg/injection, schedule: Q01DX Z (ip), vehicle: water): 87 % of control

SMILES: Cc1ccc(NC(=O)N(CCCl)N=O)cc1NC(=O)c1ccccc1
- T/C (dose: 0.22 mg/kg/injection, schedule: Q01DX009 (ip), vehicle: carboxymethylcellulose (CMC)): 103 % of control
- T/C (dose: 0.45 mg/kg/injection, schedule: Q01DX009 (ip), vehicle: carboxymethylcellulose (CMC)): 103 % of control
- T/C (dose: 1.8 mg/kg/injection, schedule: Q01DX009 (ip), vehicle: carboxymethylcellulose (CMC)): 180 % of control
- T/C (dose: 2.6 mg/kg/injection, schedule: Q01DX009 (ip), vehicle: carboxymethylcellulose (CMC)): 175 % of control
- T/C (dose: 3.0 mg/kg/injection, schedule: Q01DX009 (ip), vehicle: carboxymethylcellulose (CMC)): 164 % of control
- T/C (dose: 4.0 mg/kg/injection, schedule: Q01DX009 (ip), vehicle: carboxymethylcellulose (CMC)): 151 % of control
- T/C (dose: 6.6 mg/kg/injection, schedule: Q01DX009 (ip), vehicle: carboxymethylcellulose (CMC)): 179 % of control
- T/C (dose: 10.0 mg/kg/injection, schedule: Q01DX009 (ip), vehicle: carboxymethylcellulose (CMC)): 194 % of control
- T/C (dose: 15.0 mg/kg/injection, schedule: Q01DX009 (ip), vehicle: carboxymethylcellulose (CMC)): 183 % of control
- T/C (dose: 23.0 mg/kg/injection, schedule: Q01DX009 (ip), vehicle: carboxymethylcellulose (CMC)): 243 % of control
- T/C (dose: 34.0 mg/kg/injection, schedule: Q01DX009 (ip), vehicle: carboxymethylcellulose (CMC)): 186 % of control
- T/C (dose: 52.0 mg/kg/injection, schedule: Q01DX009 (ip), vehicle: carboxymethylcellulose (CMC)): 178 % of control
- T/C (dose: 78.0 mg/kg/injection, schedule: Q01DX001 (ip), vehicle: Klucel (hydroxypropylcellulose) (HPC)): 155 % of control
- T/C (dose: 78.0 mg/kg/injection, schedule: Q01DX009 (ip), vehicle: carboxymethylcellulose (CMC)): 205 % of control
- T/C (dose: 118.0 mg/kg/injection, schedule: Q01DX001 (ip), vehicle: Klucel (hydroxypropylcellulose) (HPC)): 159 % of control
- T/C (dose: 177.0 mg/kg/injection, schedule: Q01DX001 (ip), vehicle: Klucel (hydroxypropylcellulose) (HPC)): 213 % of control
- T/C (dose: 266.0 mg/kg/injection, schedule: Q01DX001 (ip), vehicle: carboxymethylcellulose (CMC)): 154 % of control
- T/C (dose: 266.0 mg/kg/injection, schedule: Q01DX009 (ip), vehicle: carboxymethylcellulose (CMC)): 105 % of control
- T/C [1]: 150 % of control and 168 % of control
- T/C (dose: 400.0 mg/kg/injection, schedule: Q01DX009 (ip), vehicle: carboxymethylcellulose (CMC)): 98 % of control
- T/C (dose: 600.0 mg/kg/injection, schedule: Q01DX001 (ip), vehicle: carboxymethylcellulose (CMC)): 165 % of control

SMILES: CCCCCOc1ccc(C=Nc2ccc(C)cc2)cc1
- T/C [2]: 98 % of control
- T/C [3]: 103 % of control

SMILES: CCOC(=O)c1cnc[nH]c1=O
- T/C [4]: 100 % of control
- T/C [5]: 100 % of control
- T/C [6]: 87 % of control

SMILES: Nc1nc(N)c(N=Nc2ccccc2)c(=O)[nH]1
- T/C [7]: 88 % of control
- T/C (dose: 50.0 mg/kg/injection, schedule: Q04DX003 (ip), vehicle: carboxymethylcellulose (CMC)): 94 % of control
- T/C [8]: 90 % of control
- T/C (dose: 100.0 mg/kg/injection, schedule: Q04DX003 (ip), vehicle: carboxymethylcellulose (CMC)): 93 % of control
- T/C [9]: 93 % of control
- T/C (dose: 200.0 mg/kg/injection, schedule: Q04DX003 (ip), vehicle: carboxymethylcellulose (CMC)): 94 % of control

SMILES: CC1(C)N=C(c2ccccc2)C2(c3ccccc3)N1C2(C)C (configuration not stated)
- T/C (dose: 6.0 mg/kg/injection, schedule: Q01DX001 (ip), vehicle: Klucel (hydroxypropylcellulose) (HPC)): 92 % of control
- T/C (dose: 12.0 mg/kg/injection, schedule: Q01DX001 (ip), vehicle: Klucel (hydroxypropylcellulose) (HPC)): 101 % of control
- T/C (dose: 25.0 mg/kg/injection, schedule: Q01DX001 (ip), vehicle: Klucel (hydroxypropylcellulose) (HPC)): 101 % of control

SMILES: COc1cc([N+](=O)[O-])ccc1NC(=O)Nc1cc(C)ccn1
- T/C [2]: 100 % of control
- T/C [3]: 93 % of control

SMILES: N#CC(Cc1ccccc1)c1ccccc1 (configuration not stated)
- T/C (dose: 50.0 mg/kg/injection, schedule: Q01DX001 (ip), vehicle: saline): 97 % of control
- T/C [10]: 106 % of control
- T/C [11]: 101 % of control

SMILES: Cc1cc(O)cc(C)c1C1=NCC(C)S1 (configuration not stated)
- T/C [12]: 104 % of control
- T/C [13]: 90 % of control
- T/C [14]: 90 % of control

SMILES: N#CCCCC[P+](c1ccccc1)(c1ccccc1)c1ccccc1
- T/C (dose: 25.0 mg/kg/injection, schedule: Q01DX009 (ip), vehicle: saline): 107 % of control
- T/C (dose: 50.0 mg/kg/injection, schedule: Q01DX009 (ip), vehicle: saline): 93 % of control

SMILES: CCCCNC(=S)S
- T/C [4]: 95 % of control
- T/C [5]: 98 % of control
- T/C [6]: 104 % of control

SMILES: CC12c3ccccc3C(c3ccccc31)C1C(=O)OC(=O)C12 (configuration not stated)
- T/C [8]: 98 % of control
- T/C (dose: 100.0 mg/kg/injection, schedule: Q04DX003 (ip), vehicle: saline with Tween-80): 90 % of control
- T/C [9]: 96 % of control
- T/C (dose: 200.0 mg/kg/injection, schedule: Q04DX003 (ip), vehicle: saline with Tween-80): 92 % of control
- T/C [1]: 93 % of control

SMILES: CC(=O)Oc1cccc(/C=C2/N=C(C)OC2=O)c1
- T/C (dose: 25.0 mg/kg/injection, schedule: Q04DX003 (ip), vehicle: Klucel (hydroxypropylcellulose) (HPC)): 108 % of control
- T/C (dose: 50.0 mg/kg/injection, schedule: Q04DX003 (ip), vehicle: Klucel (hydroxypropylcellulose) (HPC)): 105 % of control
- T/C [10]: 92 % of control
- T/C [4]: 97 % of control
- T/C [11]: 92 % of control
- T/C (dose: 400.0 mg/kg/injection, schedule: Q01DX001 (ip), vehicle: saline): 90 % of control

SMILES: O=[N+]([O-])c1ccc(/C=C/C=C/c2ccccc2)cc1Cl
- T/C [4]: 102 % of control
- T/C [5]: 102 % of control
- T/C [6]: 101 % of control

SMILES: CCCCCCCNC
- T/C [7]: 99 % of control
- T/C [8]: 99 % of control
- T/C [9]: 96 % of control

SMILES: CC(C)CCCC(C)C1CCC2C3CC=C4CC(OC(=O)CCCC5CCCCC5)CCC4(C)C3CCC12C (configuration not stated)
- T/C [4]: 94 % of control
- T/C [5]: 94 % of control
- T/C [6]: 94 % of control

SMILES: CSc1nccc(=O)[nH]1
- T/C (dose: 50.0 mg/kg/injection, schedule: Q01DX009 (ip), vehicle: Klucel (hydroxypropylcellulose) (HPC)): 100 % of control
- T/C [2]: 95 % of control
- T/C [4]: 102 % of control
- T/C [5]: 96 % of control

SMILES: NC(CSSCC(N)C(=O)O)C(=O)O (configuration not stated)
- T/C [8]: 95 % of control
- T/C [4]: 93 % of control
- T/C [9]: 94 % of control
- T/C [5]: 93 % of control
- T/C [1]: 95 % of control
- T/C [6]: 91 % of control

SMILES: S=C(S)N1CCOCC1.[Cu+2]
- T/C [7]: 88 % of control
- T/C [8]: 107 % of control

SMILES: COC(=O)c1cc2c(s1)C(=O)c1ccccc1-2
- T/C [4]: 104 % of control
- T/C [5]: 94 % of control
- T/C [6]: 105 % of control

SMILES: Cc1ccc2c(ccc3c[n+]4c5ccccc5ccc4n32)c1
- T/C (dose: 5.0 mg/kg/injection, schedule: Q01DX001 (ip), vehicle: saline): 97 % of control
- T/C (dose: 10.0 mg/kg/injection, schedule: Q01DX001 (ip), vehicle: saline): 100 % of control
- T/C (dose: 20.0 mg/kg/injection, schedule: Q01DX001 (ip), vehicle: saline): 101 % of control
- T/C (dose: 40.0 mg/kg/injection, schedule: Q01DX001 (ip), vehicle: saline): 117 % of control

SMILES: O=c1[nH]c2cscc2c(=O)n1O
- T/C [4]: 103 % of control
- T/C [5]: 97 % of control
- T/C [6]: 107 % of control

SMILES: COc1ccccc1C(=O)Nc1ccccc1SC
- T/C [12]: 93 % of control
- T/C [13]: 93 % of control
- T/C [14]: 93 % of control

SMILES: O=C(NCCCCCCNC(=O)Nc1cccc2ccccc12)Nc1cccc2ccccc12
- T/C [2]: 97 % of control
- T/C [3]: 103 % of control
- T/C (dose: 400.0 mg/kg/injection, schedule: Q01DX009 (ip), vehicle: Klucel (hydroxypropylcellulose) (HPC)): 92 % of control
